Paper PMC4944999 (PLoS ONE, 2016)
Where a name gives a salt, the structure may show the parent alone. Where no end group is shown, it is not given here.

Legend:
[1] = system: Recombinant neuraminidase of Influenza A virus (A/Aichi/2/1968, H3N2); assay type: biochemical
HA from Aichi H3N2 = molecular target: T1, HA from Aichi H3N2 (Influenza A virus, UniProt P03437); test: biochemical; assay type: binding, Influenza A/Aichi/2/68 H3N2
T1 construct: purchased Sino Biological 11707-V08H

[2] = system: Aichi H3N2 binding to fetuin; test: SPR inhibition of virus binding to immobilized fetuin; parameters: species or system Influenza A/Aichi/2/68 H3N2; settings: Aichi H3N2 binding to fetuin-immobilized SPR surface, virus preincubated with inhibitor 37°C at least 15 min, four parameter logistic fit, mean ± SEM n≥2
Experimental: Measurements were performed on a Biacore™ T200 (GE-Healthcare Bio-Sciences AB) using CM5 chips, and running buffer HBSP (10 mM Hepes, 150 mM NaCl, 0.05% Tween 20, pH 7.4) at 25°C. Peptides and proteins were immobilized via amine coupling with EDC/NHS at a flow rate of 10 μl min^-1, according to the manufacturer’s instructions (GE Healthcare). Optimum preconcentration was evaluated before, using acetate and phosphate buffers (10 mM) of pH 4 to 7, and ligand concentrations of 10 μg ml^-1. For the immobilization of biotinylated sialyllactose (Lectinity), neutravidin (Thermo Fisher Scientific) (100 μg ml^-1) was immobilized by amine coupling at pH 5.5 enabling high ligand density. Biotinylated sialyllactose was then injected at a concentration of 10 μg ml^-1 in HBSP for 3 min.
A constant concentration of 50 or 100 μg ml^-1 Aichi H3N2 virus was used as analyte, while the concentration of the inhibitors was varied. The suspensions of virus and inhibitor were mixed and subsequently incubated on a Thriller® thermoshaker at 500 rpm and 37°C for at least 15 min to reach equilibrium before injection on the SPR surface. The inhibitors used were peptides or α-2,3’- and α-2,6’-sialyllactose (Carbosynth). […] Inhibition was calculated against the mean value of at least five binding events with the virus alone, using the sigmoidal four parameter logistic fit (Origin).

Aichi H3N2 virus = assay type: binding, Influenza A/Aichi/2/68 H3N2 X31; settings: for Virus binding on peptide-modified surfaces: pH 7.4
Aichi H3N2 = assay type: cell-based, Influenza A/Aichi/2/68 H3N2
[3] = due to its amphiphilic character; cited from earlier work
[4] = molecular target: hemagglutinin (HA) of low pathogenic influenza A/Mute Swan/Rostock/R901/2006 H7N1 K3141, on virus particles (influenza A virus A/Mute Swan/Rostock/R901/2006 H7N1)
[5] = molecular target: hemagglutinin (HA) of low pathogenic influenza A/Mute Swan/Rostock/R901/2006 H7N1 K3141, on virus particles (influenza A virus A/Mute Swan/Rostock/R901/2006 H7N1); test: SPR

Molecule: CC(=O)N[C@H]1[C@H]([C@H](O)[C@H](O)CO)OC(C(=O)O)=C[C@@H]1O [DANA, N-acetyl-2,3-dehydro-2-deoxy-neuraminic acid disodium salt]
- IC50 [1]: 2.2 ± 0.3 µM

Molecule: ARDFYDYDVFYYAMD-NH2 [PeB]
- Kd (HA from Aichi H3N2): 56.8 µM
- IC50 [2]: 75 ± 13 µM
- IC50 ([2]; listed as PeB^GF): 13 ± 3 µM

Molecule: LGVIWAGGNTNY [PeC]
- Minimum detection level (lowest virus concentration showing binding 3 times above the SPR response of a buffer control) (Aichi H3N2 virus): 6.25 μg Aichi H3N2 virus protein ml^-1
- Virus binding on peptide-modified surfaces (Aichi H3N2 virus): Significant virus binding

Molecule: RRKKAAVALLPAVLLALLAP [EB]
- fold lower Ki(HAI) as compared to PeB^GF (Aichi H3N2): 20 fold
- Micelle formation [3]: forms micelles

Molecule: SGFLLISNGVHWV-NH2 [PeA]
- Virus binding on peptide-modified surfaces (Aichi H3N2 virus): not

B1: PeB^GF (…-amide) (peptide)
peptide: ARDFYGYDVFFYAMD-NH2
- IC50 of microneutralization of Rostock H7N1 on MDCK II cells [4]: 96 µM
- IC50 [5]: 30 µM

B2: PeB (…-amide) (peptide)
peptide: ARDFYDYDVFYYAMD-NH2
- IC50 of microneutralization of Rostock H7N1 on MDCK II cells [4]: 177 µM
- IC50 [5]: 40 µM
